Source: patent publication US20230414759A1, “NOVEL CYCLIC PEPTIDES BASED ON NANOBIOSTRUCTURAL CONTROL, PEPTIDESOMES WITH CORE/SHELL STRUCTURE COMPRISING SAME, AND USES THEREOF” (UIF (University Industry Fpimdatopm), Yonsei University, priority 2022, published 2023)

Experiments:
[1] = cited from earlier work
SCC7 cells [2] = test: Cellular uptake by CLSM and flow cytometry (FACS); type: cell-based; conditions: 2 μg/mL, 4 hours
Procedure: Analysis of intracellular delivery efficiency and FACS in vitro Cellular uptake of materials in SCC7 cells was analyzed based on the intrinsic fluorescence of Pa via CLSM (LSM700, Carl Zeiss, Germany) and flow cytometry (FACS Canto II, BD Biosciences, Bedford, MA, USA). SCC7 cells were seeded onto a 24-well plate at a density of 5×10^4 and incubated overnight. Then, […] of a sample was added to […] of a culture medium for each well. The cells were treated with the sample for 4 hours. Then, the sample was removed and the cells were washed. For cell imaging, cell nuclei were stained with Hoechst 33342.
SCC7 cells were seeded in a 24-well plate at a density of 5×10^4 and incubated overnight. Then, […] of the sample was added to […] of a culture medium. The cells were treated with the sample for 4 hours, followed by removal of the sample and washing. For cell imaging, the cell nuclei were stained with Hoechst 33342. The uptake of materials by the SCC7 cells was analyzed based on the intrinsic fluorescence of Pa via CLSM (LSM700, Carl Zeiss, Germany) and flow cytometry (FACS Canto II, BD Biosciences, Bedford, MA, USA).
As the samples, 2 μg/mL of free Pa, 2 μg/mL of the coassembled peptidesome of Example 4-6d (R6:RGD2<-Pa) (1:9) (G&G) and 2 μg/mL of the coassembled peptidesome of Example 4-6d (R6:RGD2<-Pa) (1:9) (DW) were used. […]

SCC7 cells [3] = test: Photodynamic killing of cancer cells, MTT assay after laser irradiation; type: cell-based; conditions: 24 hours, IR laser 671 nm 1.59 J/cm^2, peptidesome in DW
Procedure: SSC7 (squamous cell carcinoma 7) cells were treated with free Pa or the coassembled peptidesome of Example 4-6d (R6:RGD2<-Pa) (1:9) at 30 μM for 24 hours, followed by infrared (IR) laser (671 nm) irradiation at 1.59 J/cm^2. Cytotoxicity as a measure of the photodynamic killing of the cancer cells was determined by MTT assay.
As the samples, 2 μg/mL of free Pa, 2 μg/mL of the coassembled peptidesome of Example 4-6d (R6:RGD2<-Pa) (1:9) (G&G) and 2 μg/mL of the coassembled peptidesome of Example 4-6d (R6:RGD2<-Pa) (1:9) (DW) were used. DW means that distilled water was used instead of the G&G solution.

SCC7 cell-derived cancer = test: In-vivo antitumor efficacy (PDT) in xenograft mouse model; conditions: after 14 days
Procedure: SCC7 tumor-bearing mouse models were prepared similarly to the biodistribution analysis. When the tumor volume reached approximately 50 mm^3, the sample was intravenously injected into the xenograft mice. 3 hours after the sample injection, NIR laser (671 nm) was irradiated to the tumor site with a power of 0.53 W/cm^2 for 15 minutes, and the same sample injection and NIR irradiation were repeated on the next day. The tumor volume and body weight were recorded every two days. At the end of the therapy, major organs and tumors were dissected for histological analysis. […]
Squamous cell carcinoma 7 (SSC7) cells were cultured in an RPMI 1640 medium containing 10% FBS, 1% L-glutamine, 1% penicillin, streptomycin, etc. in a 37° C. incubator maintained at 5% carbon dioxide. The cultured cells were detached from the bottom of the flask using trypsin/EDTA and cell viability was evaluated by trypan blue exclusion assay. […]
After the injection of the sample to each group, tumor volume and body weight were recorded 2 days, 4 days, 6 days, 8 days, 10 days, 12 days and 14 days later. […] The organs and cancer tissues were fixed, prepared into cryosections, stained with hematoxylin and eosin (H&E) and observed with a fluorescence microscope (Axiolmager A1, Zeiss, Germany).

[4] = Average hydrodynamic diameter of peptidesomes by DLS at different temperatures; type: physicochemical; conditions: distilled water, 20-40° C.
Procedure: The size of self-assembled nanoparticles (SNPs) was analyzed by a dynamic light scattering size distributor (particle size & zeta potential analyzer, ELS-1000ZS, Otsuka Electronics, Japan) using a UV-transparent cuvette having a path length of 1 cm. The secondary structure of the cyclic peptides of SPNs was analyzed using a Chirascan circular dichroism spectrometer equipped with a Peltier temperature controller (Applied Photophysics, UK). The CD (circular dichroism) spectra of samples were analyzed in a range of 190-260 nm using a cuvette having a path length of 2 mm. The molar residue ellipticity of the samples was calculated per amino acid residue. All mouse experiments were conducted under an animal protocol approved by the Catholic University of Korea on Laboratory Animal Care (2020-0359-05).
It was confirmed from the foregoing experiment that the cyclic peptides prepared in Examples 2-1 to 2-3 form vesicular self-assembled structure when stored in distilled water (DW). The average hydrodynamic diameter (Dn) of the self-assembled structures was measured by dynamic light scattering (DLS) at different temperatures (20° C., 30° C., 40° C.).

Molecule	water solubility [1]	cell internalization efficiency of free Pa relative to the coassembled peptidesome (SCC7 cells [2])	PDT effect (cell viability after laser irradiation) (SCC7 cells [3])	weight of the excised tumor (SCC7 cell-derived cancer; 2 mg/kg, tail vein, NIR laser)	excised tumor weight of free Pa group relative to peptidesome<-Pa(G&G) group (SCC7 cell-derived cancer)	average diameter of peptidesome (DLS) [4]
pheophorbide a [free Pa]	14 µg/mL	5 fold	dose-dependent PDT effect	1,222 mg	approximately 3 times	
CCCCCCCCCCCC(=O)N[C@H]1CCCCNC(=O)[C@H](Cc2c[nH]c3ccccc23)NC(=O)CCC(=O)NCCOCCOCCNC(=O)[C@H](CCCNC(=N)N)NC(=O)[C@H](CCCNC(=N)N)NC(=O)CCC(=O)NCCOCCOCCNC(=O)[C@H](Cc2c[nH]c3ccccc23)NC1=O [Example 2-1]						99-127 nm
